Source: the supplement of paper PMC7840683
Counter-ions that a name gives are not always drawn. ± gives the standard deviation of the averaged measurements.

System: HepaRG
Experiment: LDH release cytotoxicity, % of total lysis control; higher = more cytotoxic
Conditions: 48 h
How it was run: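 On collagen I-coated 96-well plates, single-lot HepaRG cells were exposed for 48 h, in duplicate, to eight-point half-log series of test chemicals beginning at 100 µM. The exposure medium was serum-free induction medium with 0.5% DMSO, and total lysis wells got 0.1% Triton X. Resorufin fluorescence from the CytoTox-ONE reaction, read on a Tecan Safire, reported LDH in 50 µL of spent medium. Percent cytotoxicity came from normalization to on-plate vehicle and total lysis controls, averaged over the duplicates.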

Structure (SMILES) | LDH release cytotoxicity (0.031623 µM) [%] | LDH release cytotoxicity (0.1 µM) [%] | LDH release cytotoxicity (0.316228 µM) [%] | LDH release cytotoxicity (1 µM) [%] | LDH release cytotoxicity (3.16228 µM) [%] | LDH release cytotoxicity (10 µM) [%] | LDH release cytotoxicity (31.6228 µM) [%] | LDH release cytotoxicity (100 µM) [%] | LDH release cytotoxicity (0.03162 µM) [%] | LDH release cytotoxicity (0.3162278 µM) [%] | LDH release cytotoxicity (0.0317809 µM) [%] | LDH release cytotoxicity (0.1005 µM) [%] | LDH release cytotoxicity (0.317809 µM) [%] | LDH release cytotoxicity (1.005 µM) [%] | LDH release cytotoxicity (3.17809 µM) [%] | LDH release cytotoxicity (10.05 µM) [%] | LDH release cytotoxicity (31.7809 µM) [%] | LDH release cytotoxicity (100.5 µM) [%]
CCCCCCC(C)OC(=O)COc1nc(F)c(Cl)c(N)c1Cl (centres undefined) [Fluroxypyr-meptyl] | 1.23 ± 0.18 | -0.123 ± 1.8 | 0.191 ± 1 | -0.348 ± 1.1 | -7.7 ± 0.78 | 8.36 ± 3.8 | -0.641 ± 0.61 | -0.963 ± 0.71 | – | – | – | – | – | – | – | – | – | –
Nc1c(Cl)c(F)nc(OCC(=O)O)c1Cl [Fluroxypyr] | – | -1.46 ± 1.1 | – | -1.29 ± 0.69 | -1.07 ± 0.26 | -0.274 ± 0.24 | 0.368 ± 0.6 | 1.75 ± 0.91 | -0.285 ± 0.61 | -1.77 ± 1 | – | – | – | – | – | – | – | –
C[Si](Cn1cncn1)(c1ccc(F)cc1)c1ccc(F)cc1 [Flusilazole] | – | -1.68 ± 0.17 | – | -1.24 ± 0.29 | -2.08 ± 0.094 | -1.2 ± 0.38 | 13.7 ± 1.9 | 42.5 ± 8.6 | -1.41 ± 1 | -2.26 ± 0.57 | – | – | – | – | – | – | – | –
CC(C)C(=O)Nc1ccc([N+](=O)[O-])c(C(F)(F)F)c1 [Flutamide] | – | -1.06 ± 0.19 | – | -1.92 ± 1.5 | -1.23 ± 0.22 | 0.0752 ± 0.3 | 2.14 ± 1.3 | 13.6 ± 7.4 | -0.977 ± 0.81 | -1.63 ± 1.3 | – | – | – | – | – | – | – | –
COC(=O)CSc1cc(N=c2sc(=O)n3n2CCCC3)c(F)cc1Cl [Fluthiacet-methyl] | – | -2.67 ± 1 | – | -1.73 ± 0.018 | -1.61 ± 0.37 | -1.57 ± 0.3 | -0.786 ± 0.091 | 0.903 ± 0.25 | -1.78 ± 1.1 | -1.91 ± 1 | – | – | – | – | – | – | – | –
CC(C)Oc1cccc(NC(=O)c2ccccc2C(F)(F)F)c1 [Flutolanil] | -1.37 ± 1.1 | -2.54 ± 0.44 | -3.14 ± 0.46 | -2.18 ± 0.77 | -1.81 ± 1.2 | -1.86 ± 0.057 | -0.343 ± 0.59 | 3.01 ± 0.1 | – | – | – | – | – | – | – | – | – | –
Nc1nc(=O)c2nc(CNc3ccc(C(=O)NC(CCC(=O)O)C(=O)O)cc3)cnc2[nH]1 (centres undefined) [Folic acid] | – | -1.11 ± 0.044 | – | -1.1 ± 0.086 | -0.966 ± 0.064 | -0.672 ± 0.085 | -0.33 ± 0.12 | 1.64 ± 0.3 | -0.0941 ± 0.85 | -1.22 ± 0.067 | – | – | – | – | – | – | – | –
O=C1c2ccccc2C(=O)N1SC(Cl)(Cl)Cl [Folpet] | 0.571 ± 0.94 | -2.6 ± 0.32 | -1.27 ± 0.63 | -1.65 ± 1.3 | -1.73 ± 0.14 | -1.49 ± 0.98 | -0.653 ± 0.48 | -0.43 ± 1.1 | – | – | – | – | – | – | – | – | – | –
CS(=O)(=O)NC(=O)c1cc(Oc2ccc(C(F)(F)F)cc2Cl)ccc1[N+](=O)[O-] [Fomesafen] | – | -1.48 ± 0.59 | – | -0.63 ± 0.72 | -0.773 ± 0.02 | 0.708 ± 0.54 | 0.985 ± 0.17 | 3.41 ± 0.9 | -1.12 ± 1.1 | 0.3 ± 0.32 | – | – | – | – | – | – | – | –
O=C(Nc1ccccc1)Nc1ccnc(Cl)c1 [Forchlorfenuron] | – | -0.953 ± 0.64 | – | -0.995 ± 0.79 | -0.25 ± 0.84 | -0.369 ± 0.16 | 6.54 ± 0.27 | 61.5 ± 5.7 | -0.561 ± 0.058 | -0.719 ± 0.22 | – | – | – | – | – | – | – | –
NC=O [Formamide] | – | -1.37 ± 0.46 | – | -1.62 ± 1.2 | -1.72 ± 0.14 | -1.47 ± 1.5 | -0.537 ± 0.33 | 0.4 ± 1.3 | -0.907 ± 0.53 | -0.701 ± 1.2 | – | – | – | – | – | – | – | –
CNC(=O)Oc1cccc(N=CN(C)C)c1 [Formetanate hydrochloride] | – | – | – | – | – | – | – | – | – | – | -8.9 ± 1.2 | -7.63 ± 0.9 | -7.59 ± 0.12 | -7.51 ± 1 | -6.9 ± 0.096 | -5.88 ± 0.74 | -6.15 ± 0.89 | -5.62 ± 1.4
CCOP(=O)(SC(C)CC)N1CCSC1=O (centres undefined) [Fosthiazate] | – | -0.335 ± 0.79 | – | -0.0276 ± 1 | -0.262 ± 0.11 | -0.389 ± 0.35 | -0.432 ± 0.8 | 0.843 ± 0.36 | -0.419 ± 0.44 | -0.582 ± 0.46 | – | – | – | – | – | – | – | –
CC12CCC3c4ccc(O)cc4CC(CCCCCCCCCS(=O)CCCC(F)(F)C(F)(F)F)C3C1CCC2O (centres undefined) [Fulvestrant] | – | -1.62 ± 0.93 | – | -1.01 ± 0.37 | -1.1 ± 0.47 | -0.0401 ± 1.7 | -3.17 ± 0.35 | 3.92 ± 6.4 | -1.87 ± 0.22 | -0.633 ± 0.4 | – | – | – | – | – | – | – | –
O=Cc1ccco1 [Furfural] | – | -2.07 ± 1.7 | – | -3.82 ± 2.1 | -4.51 ± 0.77 | -0.135 ± 1.1 | -0.567 ± 0.12 | 3.05 ± 1.1 | -1.57 ± 0.78 | -2.64 ± 0.63 | – | – | – | – | – | – | – | –
O=c1c(-c2ccc(O)cc2)coc2cc(O)cc(O)c12 [Genistein] | – | 0.689 ± 1.7 | – | -1.48 ± 0.77 | -1.52 ± 0.039 | -1.28 ± 0.36 | -1.5 ± 0.3 | 1.33 ± 0.27 | -1.15 ± 0.87 | -2.06 ± 0.49 | – | – | – | – | – | – | – | –
CN(C)c1ccc(C(=C2C=CC(=[N+](C)C)C=C2)c2ccc(N(C)C)cc2)cc1 [Gentian Violet] | – | -2.46 ± 0.081 | – | -1.96 ± 0.38 | 6.76 ± 0.71 | 29.8 ± 0.12 | 51.8 ± 0.8 | 54.6 ± 3.8 | -1.62 ± 0.081 | -1.86 ± 0.074 | – | – | – | – | – | – | – | –
CC(C)=CCC/C(C)=C/CO [Geraniol] | – | -2.89 ± 0.23 | – | -2.72 ± 0.9 | -2.26 ± 0.81 | -1.87 ± 0.88 | -1.12 ± 0.87 | -0.773 ± 0.42 | -2.2 ± 0.9 | -2.68 ± 0.32 | – | – | – | – | – | – | – | –
